Measurements published in patent US9550768B2, “Kinase modulation and indications therefor” (PLEXXIKON INC., priority 2011, dated 2017).

Biological target: T1, FLT3 (Homo sapiens, UniProt P36888)
T1 construct: purchased Invitrogen PV3182
T1 sequence (P36888 564-993 limits assumed): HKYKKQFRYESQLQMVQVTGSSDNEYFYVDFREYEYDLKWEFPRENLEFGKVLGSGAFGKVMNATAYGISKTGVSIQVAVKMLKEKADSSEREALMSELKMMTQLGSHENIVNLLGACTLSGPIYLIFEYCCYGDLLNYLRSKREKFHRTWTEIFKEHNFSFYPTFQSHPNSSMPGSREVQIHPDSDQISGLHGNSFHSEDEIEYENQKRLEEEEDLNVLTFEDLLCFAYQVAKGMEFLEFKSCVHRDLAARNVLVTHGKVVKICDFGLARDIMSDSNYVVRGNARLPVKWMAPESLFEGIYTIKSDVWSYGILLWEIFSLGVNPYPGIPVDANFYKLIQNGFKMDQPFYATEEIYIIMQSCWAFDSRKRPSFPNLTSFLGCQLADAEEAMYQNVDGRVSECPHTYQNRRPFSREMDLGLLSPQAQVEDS
Assay: Flt3 biochemical assay (AlphaScreen, recombinant enzyme)
Conditions: recombinant FLT3, ATP 100 μM, room temperature, 60 minutes

Structure (SMILES) | IC50
COc1ccc(CNc2ccc(Cc3c[nH]c4ncc(C)cc34)cn2)cn1 [Compound P-0282, (6-Methoxy-pyridin-3-ylmethyl)-[5-(5-methyl-1H-pyrrolo[2,3-b]pyridin-3-ylmethyl)-pyridin-2-yl]-amine] | < 100 nM
Fc1cncc(CNc2ccc(Cc3c[nH]c4ncc(Cl)cc34)cn2)c1 [Compound P-0324, [5-(5-Chloro-1H-pyrrolo[2,3-b]pyridin-3-ylmethyl)-pyridin-2-yl]-(5-fluoro-pyridin-3-ylmethyl)-amine] | < 1000 nM
COc1cnc2[nH]cc(Cc3ccc(NCc4ccccc4C(F)(F)F)nc3)c2c1 [Compound P-0326, [5-(5-Methoxy-1H-pyrrolo[2,3-b]pyridin-3-ylmethyl)-pyridin-2-yl]-(2-trifluoromethyl-benzyl)-amine] | < 100 nM
COc1cnc2[nH]cc(Cc3ccc(NCc4cc(F)ccc4F)nc3)c2c1 [Compound P-0330, (2,5-Difluoro-benzyl)-[5-(5-methoxy-1H-pyrrolo[2,3-b]pyridin-3-ylmethyl)-pyridin-2-yl]-amine] | < 1000 nM
Fc1cnc2[nH]cc(Cc3ccc(NCc4c(F)cccc4F)nc3)c2c1 [Compound P-0333, (2,6-Difluoro-benzyl)-[5-(5-fluoro-1H-pyrrolo[2,3-b]pyridin-3-ylmethyl)-pyridin-2-yl]-amine] | < 10000 nM
COc1ccc(CNc2ccc(Cc3c[nH]c4ncccc34)cn2)c(OC)n1 [Compound P-0370, (2,6-Dimethoxy-pyridin-3-ylmethyl)-[5-(1H-pyrrolo[2,3-b]pyridin-3-ylmethyl)-pyridin-2-yl]-amine] | < 100 nM
Cc1cc(F)ccc1CNc1ccc(Cc2c[nH]c3ncccc23)cn1 [Compound P-0372, (4-Fluoro-2-methyl-benzyl)-[5-(1H-pyrrolo[2,3-b]pyridin-3-ylmethyl)-pyridin-2-yl]-amine] | < 100 nM
Clc1ccc(Cl)c(CNc2ccc(Cc3c[nH]c4ncccc34)cn2)c1 [Compound P-0380, (2,5-Dichloro-benzyl)-[5-(1H-pyrrolo[2,3-b]pyridin-3-ylmethyl)-pyridin-2-yl]-amine] | < 1000 nM
CNc1ncccc1CNc1ccc(Cc2c[nH]c3ncccc23)cn1 [Compound P-0385, Methyl-(3-{[5-(1H-pyrrolo[2,3-b]pyridin-3-ylmethyl)-pyridin-2-ylamino]-methyl}-pyridin-2-yl)-amine] | < 1000 nM
Fc1ccc(C(F)(F)F)c(CNc2ncc(Cc3c[nH]c4ncc(Cl)cc34)cn2)c1 [Compound P-0391, [5-(5-Chloro-1H-pyrrolo[2,3-b]pyridin-3-ylmethyl)-pyrimidin-2-yl]-(5-fluoro-2-trifluoromethyl-benzyl)-amine] | < 10000 nM
Fc1ccc(Cl)c(CNc2ncc(Cc3c[nH]c4ncc(Cl)cc34)cn2)c1 [Compound P-0408, (2-Chloro-5-fluoro-benzyl)-[5-(5-chloro-1H-pyrrolo[2,3-b]pyridin-3-ylmethyl)-pyrimidin-2-yl]-amine] | < 1000 nM
N#Cc1cnc2[nH]cc(Cc3ccc(NCc4cncc(F)c4)nc3F)c2c1 [Compound P-0415, 3-{2-Fluoro-6-[(5-fluoro-pyridin-3-ylmethyl)-amino]-pyridin-3-ylmethyl}-1H-pyrrolo[2,3-b]pyridine-5-carbonitrile] | < 1000 nM
CC(Nc1ncc(Cc2c[nH]c3ncc(Cl)cc23)cn1)c1ccc(Cl)cc1 (stereo not shown) [Compound P-0427, [1-(4-Chloro-phenyl)-ethyl]-[5-(5-chloro-1H-pyrrolo[2,3-b]pyridin-3-ylmethyl)-pyrimidin-2-yl]-amine] | < 1000 nM
C[C@H](Nc1ncc(Cc2c[nH]c3ncc(Cl)cc23)cn1)c1ccc(F)cc1 [Compound P-0428, [5-(5-Chloro-1H-pyrrolo[2,3-b]pyridin-3-ylmethyl)-pyrimidin-2-yl]-[(S)-1-(4-fluoro-phenyl)-ethyl]-amine] | < 1000 nM
N#Cc1cnc2[nH]cc(Cc3ccc(NCc4ccc(Cl)cc4)nc3F)c2c1 [Compound P-0432, 3-[6-(4-Chloro-benzylamino)-2-fluoro-pyridin-3-ylmethyl]-1H-pyrrolo[2,3-b]pyridine-5-carbonitrile] | < 100 nM
COc1ccccc1CNc1ncc(Cc2c[nH]c3ncc(Cl)cc23)cn1 [Compound P-0433, [5-(5-Chloro-1H-pyrrolo[2,3-b]pyridin-3-ylmethyl)-pyrimidin-2-yl]-(2-methoxy-benzyl)-amine] | < 1000 nM
Fc1cccc(CNc2ncc(Cc3c[nH]c4ncc(Cl)cc34)cn2)c1 [Compound P-0442, [5-(5-Chloro-1H-pyrrolo[2,3-b]pyridin-3-ylmethyl)-pyrimidin-2-yl]-(3-fluoro-benzyl)-amine] | < 100 nM

The next lines start with the values.

IC50 | Structure (SMILES)
< 10 nM | COc1cnc2[nH]cc(Cc3ccc(NCc4ccc(C(F)(F)F)nc4)nc3F)c2c1 [Compound P-0187, [6-Fluoro-5-(5-methoxy-1H-pyrrolo[2,3-b]pyridin-3-ylmethyl)-pyridin-2-yl]-(6-trifluoromethyl-pyridin-3-ylmethyl)-amine]
< 100 nM | Fc1ccc(CNc2nc(Cl)c(Cc3c[nH]c4ncc(Cl)cc34)s2)cc1 [Compound P-0195, [4-Chloro-5-(5-chloro-1H-pyrrolo[2,3-b]pyridin-3-ylmethyl)-thiazol-2-yl]-(4-fluoro-benzyl)-amine]
< 100 nM | N#Cc1cnc2[nH]cc(Cc3ccc(NCc4ccc(C(F)(F)F)nc4)nc3Cl)c2c1 [Compound P-0232, 3-{2-Chloro-6-[(6-trifluoromethyl-pyridin-3-ylmethyl)-amino]-pyridin-3-ylmethyl}-1H-pyrrolo[2,3-b]pyridine-5-carbonitrile]
< 100 nM | COc1ccc(CNc2ccc(Cc3c[nH]c4ncc(Cl)cc34)cn2)cn1 [Compound P-0283, [5-(5-Chloro-1H-pyrrolo[2,3-b]pyridin-3-ylmethyl)-pyridin-2-yl]-(6-methoxy-pyridin-3-ylmethyl)-amine]
< 1000 nM | COc1ccc(CNc2ccc(Cc3c[nH]c4ncc(C#N)cc34)cn2)cn1 [Compound P-0284, 3-{6-[(6-Methoxy-pyridin-3-ylmethyl)-amino]-pyridin-3-ylmethyl}-1H-pyrrolo[2,3-b]pyridine-5-carbonitrile]
< 100 nM | COc1cnc2[nH]cc(Cc3ccc(NCc4ccc(OC)nc4)nc3)c2c1 [Compound P-0332, (6-Methoxy-pyridin-3-ylmethyl)-[5-(5-methoxy-1H-pyrrolo[2,3-b]pyridin-3-ylmethyl)-pyridin-2-yl]-amine]
< 1000 nM | CCc1ccccc1CNc1ccc(Cc2c[nH]c3ncccc23)cn1 [Compound P-0383, (2-Ethyl-benzyl)-[5-(1H-pyrrolo[2,3-b]pyridin-3-ylmethyl)-pyridin-2-yl]-amine]
< 100 nM | CN(C)c1ncccc1CNc1ccc(Cc2c[nH]c3ncccc23)cn1 [Compound P-0399, Dimethyl-(3-{[5-(1H-pyrrolo[2,3-b]pyridin-3-ylmethyl)-pyridin-2-ylamino]-methyl}-pyridin-2-yl)-amine]
< 100 nM | FC(F)(F)c1ccc(CNc2ncc(Cc3c[nH]c4ncc(Cl)cc34)cn2)cn1 [Compound P-0429, [5-(5-Chloro-1H-pyrrolo[2,3-b]pyridin-3-ylmethyl)-pyrimidin-2-yl]-(6-trifluoromethyl-pyridin-3-ylmethyl)-amine]
< 10 nM | CN(C)c1ccccc1CNc1ncc(Cc2c[nH]c3ncc(Cl)cc23)cn1 [Compound P-0449, [5-(5-Chloro-1H-pyrrolo[2,3-b]pyridin-3-ylmethyl)-pyrimidin-2-yl]-(2-dimethylamino-benzyl)-amine]

System: leukemia cell that express either wild type FLT3 or FLT3-ITD mutations
Assay: not given
Conditions: cited from earlier work

Structure (SMILES) | growth of leukemia cells
C=CCNC1=C2C[C@@H](C)C[C@H](OC)[C@H](O)[C@@H](C)/C=C(\C)[C@H](OC(N)=O)[C@@H](OC)/C=C\C=C(/C)C(=O)NC(=CC1=O)C2=O [Compound 17AAG] | inhibited
